# Patent publication EP3545756A1, “REGENERATION OF PLANTS IN THE PRESENCE OF INHIBITORS OF THE HISTONE METHYLTRANSFERASE EZH2” (KWS SAAT SE & Co. KGaA, priority 2018, dated 2019)
# Counter-ions that a name gives are not always drawn.
# What was measured:
# sugar beet callus [1] = test: Shoot formation after particle bombardment of sugar beet callus; type: cell-based, Beta vulgaris
# Method: • 1. Friable calli were produced as described above in steps 1 and 2 of Example 1. • 2. An osmotic treatment was carried out by incubating the harvested calli in a medium containing MS salts, 30 g/l sucrose,1 mg/l GA3,1 mg/l Thidiazuron (TDZ),10 g/l agar, pH 6.0, 36 g/l mannitol and 36 g/l sorbitol for 2.5 h at room temperature in the dark. • 3. Preparation and DNA coating of the gold particles was done by standard procedures, as describe in the PDS-1000/He instruction manual. The plasmid pZFNnptll with the red fluorescent marker, tdT, (see Figure 2) was coprecipitated with gold particles. • 4. Calli were bombarded with a PDS-1000/He unit (Bio-Rad), using 30 ng gold particles coated with 500 ng DNA per shot. The rupture pressure was 450 psi and the target tissue was placed at 9 cm distance from the stopping screen. • 5. After bombardment, aliquots of calli tissue were incubated in medium containing MS salts, 30 g/l sucrose, 1 mg/l GA3 and 1 mg/l TDZ, with and without 0.4 mg/l DZNep, in light/dark (16h/8h), at 24 °C for 10 days on separate plates. As a control for standard regeneration, non-bombarded aliquots of calli were treated in the osmotic medium and directly transferred to above medium without DZNep. Shoot number was scored by using a standard binocular.
# Sugar beet plants = test: Plant growth after regeneration from shoots induced with temporary DZNep treatment; type: in vivo, Beta vulgaris; conditions: shoots from DZNep plates transferred into normal growth medium without DZNep, compared with shoots from control plates
# Excerpt: Beside the increased capability for shoot formation the inventors observed that shoots harvested from the control plates and from the plates supplied with DZNep and subsequently transferred into the container with normal growth medium (without DZNep), developed to plant with different biomass and vitality. […] Thus, the DZNep treatment affects also positively the plant growth after regeneration.
# sugar beet callus [2] = test: Shoot formation from sugar beet callus in DZNep-supplemented medium; type: cell-based, Beta vulgaris; conditions: 8 days
# Excerpt: The applied method is based on the publication by Kischenko et al. (2005. Production of transgenetic sugarbeet (Beta vulgaris L.) plants resistant to phosphinothricin. Cell biology international, 29(1), 15-19.). This method relies on the induction of friable callus derived from cotyledons and hypocotyl explants. Method is genotype dependent.
# • 1. Micropropagated shoots of the genotype 9BS0448 were used as starting material. Shoots were multiplied in MS salts supplemented with 30 g/l sucrose and 0.25 mg/l benzyladenine (BAP). • 2. To induce friable callus, leaf explants were isolated from micropropagated shoots and incubated in medium containing MS salts including 15 g/l sucrose and 2 mg/l BAP at 28°C in the dark for 7 weeks.
# • 3. Friable calli of step 2 were harvested and placed in medium containing MS salts, 30 g/l sucrose, 1 mg/l GA3 and 1 mg/l TDZ, and transferred to separate dishes as control. Similar amount of friable calli were harvested and placed in the same medium supplemented with 0.4 mg/l DZNep. • 4. The dishes were incubated under the light/dark regime (16 h/8 h) at 24°C for 8 days. • 5. Developing shoots were counted under a stereomicroscope, in order to estimate the regeneration capacity.
structure (smiles),measurement,setting,value
"Nc1nccc2c1ncn2[C@@H]1C=C(CO)[C@@H](O)[C@H]1O [DZNep, 3-Deazaneplanocin A hydrochloride]",increase of shoots per plate compared to the bombarded control,sugar beet callus [1]; bombarded calli with 0.4 mg/l DZNep versus bombarded control with standard medium,207%
same,increase of shoots per plate compared to the non-bombarded control,sugar beet callus [1]; bombarded calli with 0.4 mg/l DZNep versus non-bombarded control without DZNep,108%
same,mean value of shoots per plate,"sugar beet callus [1]; bombarded calli, 0.4 mg/l DZNep in medium, 10 days, 24 °C, non-bombarded control 4, bombarded control 2.7",8.3 shoots per plate
same,plant biomass and vitality after regeneration,Sugar beet plants,significantly bigger and more vital
same,mean value of shoots per 1 g callus tissue,"sugar beet callus [2]; 0.4 mg/l DZNep in shoot induction medium, genotype 9BS0448, 24°C, light/dark 16 h/8 h, control 13.9",27.1 shoots per 1 g callus tissue
same,increase of shoots per 1 g callus tissue compared to control,sugar beet callus [2]; 0.4 mg/l DZNep versus control without DZNep,95%
